Laboratory results as given in US20260176260A1, “DUAL RAF AND TUBULIN INHIBITORS AND METHODS OF USE THEREOF” (Deciphera Pharmaceuticals, LLC, priority 2023, published 2026).
pIC50: −log10 of the molar value.

What was measured:
Pa16c cells = assay: Pa16c cell proliferation assay (resazurin); format: cell-based; details: Table 2, inhibition of cell proliferation
In short: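 Pa16c cells, 750 per well in DMEM with 10% FBS, exposed to serially diluted compound in triplicate for 67-72 h at 37 °C. Resazurin then added for a further 18-24 h, fluorescence read at Ex 540/Em 600 nm, and IC50 calculated.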

[1] = test system: tubulin polymerization in HCT-116 cells; assay: Cellular tubulin polymerization assay (pellet/supernatant a-tubulin, HCT-116 cells); format: cell-based; details: Table 3, HCT-116 cells; read-out: Tubulin Cellular
Description: HCT-116 cells (catalog #CCL-247) are obtained from the American Type Culture Collect (ATCC, Manassas, VA). Briefly, cells are grown in McCoy's 5A supplemented with 10% characterized fetal bovine serum (Invitrogen, Carlsbad, CA) and 1% Penicillin/Streptomycin/L-Glutamine at 37° C., 5% CO2, and 95% humidity. Cells are expanded until reaching 70-95% confluency at which point they are sub-cultured or harvested for assay use. 450000 cells are added per well in 1500 μL complete growth medium in a tissue culture treated, 12-well plate. Plates are incubated for 18 to 24 h at 37° C., 5% CO2, and 95% humidity. At the end of the incubation, 2000 μL of base culture media is added to each well, followed by a serial dilution of compound. Plates are incubated for an additional 1 h at 37° C., 5% CO2, and 95% humidity. Lysates are generated by the addition of 100 μL Lysis and Microtubule Stabilization Buffer 1 (LMS01, Cytoskeleton Inc, Denver, CO) supplemented with GTP (BST06, Cytoskeleton Inc), ATP (BSA04, Cytoskeleton Inc), and Protease Inhibitor Cocktail Stock (PIC02, Cytoskeleton Inc). Cells are scraped off wells using a rubber cell scraper and collected in a clean 96-well plate. Lysates are centrifuged at 1000×g, 37° C. for 10 min and supernatant fraction is placed into an additional 96-well plate. The remaining pellet fraction is reconstituted in 100 μL LMS01 buffer and sonicated for 10 min. Pellet and Supernatant fractions are probed for a-tubulin via western blot analysis on the Jess System or equivalent (Bio-techne, Minneapolis, MN). Data is analyzed using Prism software (Graphpad, San Diego, CA) to calculate IC50 values.

Row | pIC50 [1] | Structure (SMILES) | pIC50 (Pa16c cells)
1 | 6.30 to 7.00 | CNC(=O)c1cc(-c2cc(-c3cc(NC(=O)c4cc(C5CC5)cnn4)ccc3C)ccn2)ccn1 [Example 26] | 6.30 to 7.00
2 | 6.30 to 7.00 | CNC(=O)c1cc(-c2cc(-c3cc(NC(=O)c4cc(C5CC5)cnn4)ccc3C)cc(NCCO)n2)ccn1 [Example 27] | > 7.00

Second part, the molecule before the results:

Row | Structure (SMILES) | pIC50 [1] | pIC50 (Pa16c cells)
3 | CNC(=O)c1cc(-c2cc(-c3cc(NC(=O)c4cc(C(F)(F)F)cnn4)ccc3C)cc(C)n2)ccn1 [Example 2, N,6-dimethyl-4-(2-methyl-5-(5-(trifluoromethyl)pyridazine-3-carboxamido)phenyl)-[2,4′-bipyridine]-2′-carboxamide] | 6.30 to 7.00 | 6.00 to 6.30
4 | CNC(=O)c1cc(-c2cc(-c3cc(NC(=O)c4cc(C(F)(F)F)cnn4)ccc3C)ccn2)ccn1 [Example 9] | 6.30 to 7.00 | 6.30 to 7.00
5 | CNC(=O)c1cc(-c2cc(-c3cc(NC(=O)c4cc(C(F)(F)F)cnn4)ccc3C)cc(NCCO)n2)ccn1 [Example 18] | > 7.00 | > 7.00
